# In ChEMBL document CHEMBL1649488, “In vitro activities of echinocandins against Candida krusei determined by three methods: MIC and minimal fungicidal concentration measurements and time-kill studies” (2009):
# The source made the active and inactive calls. The rule behind the calls is not given here.
# Tests used:
# Format in all cases: functional
# Pichia kudriavzevii [1] = assay: Antifungal activity against Candida krusei EU123 bloodstream forms after 24 hrs by time-kill analysis; conditions: EU123, 24 h
# Pichia kudriavzevii [2] = assay: Antifungal activity against Candida krusei ATCC 6258 bloodstream forms assessed as time to achieve 99% fungal growth reduction at 2 mg/L by time-kill analysis
# Pichia kudriavzevii [3] = assay: Antifungal activity against Candida krusei ATCC 6258 bloodstream forms assessed as time to achieve 99% fungal growth reduction at 32 mg/L by time-kill analysis
# Pichia kudriavzevii [4] = assay: Antifungal activity against Candida krusei ATCC 6258 bloodstream forms assessed as time to achieve 99.9% fungal growth reduction at 0.5 mg/L by time-kill analysis
# Pichia kudriavzevii [5] = assay: Antifungal activity against Candida krusei ATCC 6258 bloodstream forms assessed as minimum concentration producing >= 100% growth reduction after 48 hrs by M27-A3 microdilution method; conditions: ATCC 6258, 48 h
# Pichia kudriavzevii [6] = assay: Antifungal activity against Candida krusei CK2 bloodstream forms after 24 hrs by time-kill analysis; conditions: CK2, 24 h
# Pichia kudriavzevii [7] = assay: Antifungal activity against Candida krusei ATCC 6258 bloodstream forms assessed as time to achieve 50% fungal growth reduction at 32 mg/L by time-kill analysis
# Pichia kudriavzevii [8] = assay: Antifungal activity against Candida krusei ATCC 6258 bloodstream forms assessed as time to achieve 90% fungal growth reduction at 0.5 mg/L by time-kill analysis
# Pichia kudriavzevii [9] = assay: Antifungal activity against Candida krusei ATCC 6258 bloodstream forms assessed as time to achieve 50% fungal growth reduction at 2 mg/L by time-kill analysis
# Pichia kudriavzevii [10] = assay: Antifungal activity against Candida krusei CK1 bloodstream forms after 24 hrs by time-kill analysis; conditions: CK1, 24 h
# Pichia kudriavzevii [11] = assay: Antifungal activity against Candida krusei ATCC 6258 bloodstream forms assessed as minimum concentration producing >= 50% growth reduction after 48 hrs by M27-A3 microdilution method; conditions: ATCC 6258, 48 h
# Pichia kudriavzevii [12] = assay: Antifungal activity against Candida krusei CY118 bloodstream forms after 24 hrs by time-kill analysis; conditions: CY118, 24 h
# Pichia kudriavzevii [13] = assay: Antifungal activity against Candida krusei ATCC 6258 bloodstream forms assessed as time to achieve 99% fungal growth reduction at 8 mg/L by time-kill analysis
# Pichia kudriavzevii [14] = assay: Antifungal activity against Candida krusei ATCC 6258 bloodstream forms assessed as time to achieve 90% fungal growth reduction at 2 mg/L by time-kill analysis
# Pichia kudriavzevii [15] = assay: Antifungal activity against Candida krusei ATCC 6258 bloodstream forms after 24 hrs by time-kill analysis; conditions: ATCC 6258, 24 h
# Pichia kudriavzevii [16] = assay: Antifungal activity against Candida krusei ATCC 6258 bloodstream forms assessed as time to achieve 99.9% fungal growth reduction at 2 mg/L by time-kill analysis
# Pichia kudriavzevii [17] = assay: Fungicidal activity against Candida krusei CY118 bloodstream forms after 24 hrs by time-kill analysis; conditions: CY118, 24 h
# Pichia kudriavzevii [18] = assay: Antifungal activity against Candida krusei ATCC 6258 bloodstream forms assessed as time to achieve 99.9% fungal growth reduction at 0.12 mg/L by time-kill analysis
# Pichia kudriavzevii [19] = assay: Fungicidal activity against Candida krusei CK1 bloodstream forms after 24 hrs by time-kill analysis; conditions: CK1, 24 h
# Pichia kudriavzevii [20] = assay: Antifungal activity against Candida krusei CK18 bloodstream forms after 24 hrs by time-kill analysis; conditions: CK18, 24 h
# Pichia kudriavzevii [21] = assay: Fungicidal activity against Candida krusei CK6 bloodstream forms after 24 hrs by time-kill analysis; conditions: CK6, 24 h
# Pichia kudriavzevii [22] = assay: Fungicidal activity against Candida krusei EU123 bloodstream forms after 24 hrs by time-kill analysis; conditions: EU123, 24 h
# Pichia kudriavzevii [23] = assay: Antifungal activity against Candida krusei ATCC 6258 bloodstream forms assessed as time to achieve 99% fungal growth reduction at 0.12 mg/L by time-kill analysis
# Pichia kudriavzevii [24] = assay: Fungicidal activity against Candida krusei ATCC 6258 bloodstream forms after 24 hrs by time-kill analysis; conditions: ATCC 6258, 24 h
# Pichia kudriavzevii [25] = assay: Antifungal activity against Candida krusei ATCC 6258 bloodstream forms assessed as time to achieve 90% fungal growth reduction at 32 mg/L by time-kill analysis
# Pichia kudriavzevii [26] = assay: Antifungal activity against Candida krusei ATCC 6258 bloodstream forms assessed as time to achieve 99.9% fungal growth reduction at 8 mg/L by time-kill analysis
# Pichia kudriavzevii [27] = assay: Fungicidal activity against Candida krusei EU220 bloodstream forms after 24 hrs by time-kill analysis; conditions: EU220, 24 h
# Pichia kudriavzevii [28] = assay: Antifungal activity against Candida krusei ATCC 6258 bloodstream forms assessed as time to achieve 99% fungal growth reduction at 0.5 mg/L by time-kill analysis
# Pichia kudriavzevii [29] = assay: Antifungal activity against Candida krusei ATCC 6258 bloodstream forms assessed as time to achieve 50% fungal growth reduction at 8 mg/L by time-kill analysis
# Pichia kudriavzevii [30] = assay: Antifungal activity against Candida krusei ATCC 6258 bloodstream forms assessed as time to achieve 99.9% fungal growth reduction at 32 mg/L by time-kill analysis
# Pichia kudriavzevii [31] = assay: Fungicidal activity against Candida krusei CK2 bloodstream forms after 24 hrs by time-kill analysis; conditions: CK2, 24 h
# Pichia kudriavzevii [32] = assay: Fungicidal activity against Candida krusei CK18 bloodstream forms after 24 hrs by time-kill analysis; conditions: CK18, 24 h
# Pichia kudriavzevii [33] = assay: Antifungal activity against Candida krusei EU220 bloodstream forms after 24 hrs by time-kill analysis; conditions: EU220, 24 h
# Pichia kudriavzevii [34] = assay: Antifungal activity against Candida krusei CK6 bloodstream forms after 24 hrs by time-kill analysis; conditions: CK6, 24 h
# Pichia kudriavzevii [35] = assay: Antifungal activity against Candida krusei ATCC 6258 bloodstream forms assessed as minimum concentration producing >= 50% growth reduction after 24 hrs by M27-A3 microdilution method; conditions: ATCC 6258, 24 h
# Pichia kudriavzevii [36] = assay: Antifungal activity against Candida krusei ATCC 6258 bloodstream forms assessed as time to achieve 90% fungal growth reduction at 0.12 mg/L by time-kill analysis
# Pichia kudriavzevii [37] = assay: Antifungal activity against Candida krusei ATCC 6258 bloodstream forms assessed as time to achieve 50% fungal growth reduction at 0.12 mg/L by time-kill analysis
# Pichia kudriavzevii [38] = assay: Antifungal activity against Candida krusei ATCC 6258 bloodstream forms assessed as minimum concentration producing >= 100% growth reduction after 24 hrs by M27-A3 microdilution method; conditions: ATCC 6258, 24 h
# Pichia kudriavzevii [39] = assay: Fungicidal activity against Candida krusei ATCC 6258 bloodstream forms after 48 hrs by M27-A3 microdilution method
# Pichia kudriavzevii [40] = assay: Antifungal activity against Candida krusei ATCC 6258 bloodstream forms assessed as time to achieve 50% fungal growth reduction at 0.5 mg/L by time-kill analysis
# Pichia kudriavzevii [41] = assay: Antifungal activity against Candida krusei ATCC 6258 bloodstream forms assessed as time to achieve 90% fungal growth reduction at 8 mg/L by time-kill analysis
structure (smiles),measurement,setting,value
CC[C@H](C)C[C@H](C)CCCCCCCCC(=O)N[C@H]1C[C@@H](O)[C@@H](NCCN)NC(=O)[C@@H]2[C@@H](O)CCN2C(=O)[C@H]([C@H](O)CCN)NC(=O)[C@H]([C@H](O)[C@@H](O)c2ccc(O)cc2)NC(=O)[C@@H]2C[C@@H](O)CN2C(=O)[C@H]([C@@H](C)O)NC1=O [CASPOFUNGIN],MIC,Pichia kudriavzevii [1],2 µg/mL
same,Time,Pichia kudriavzevii [2],24.9 h
same,Time,Pichia kudriavzevii [3],14.3 h
same,Time,Pichia kudriavzevii [4],>48 h
same,MIC,Pichia kudriavzevii [5],0.8 µg/mL
same,MIC50,Pichia kudriavzevii [5],1 µg/mL
same,MIC90,Pichia kudriavzevii [5],2 µg/mL
same,MIC,Pichia kudriavzevii [6],1 µg/mL
same,Time,Pichia kudriavzevii [7],2.1 h
same,Time,Pichia kudriavzevii [8],27.6 h
same,Time,Pichia kudriavzevii [9],3.7 h
same,MIC,Pichia kudriavzevii [10],1 µg/mL
same,MIC50,Pichia kudriavzevii [11],1 µg/mL
same,MIC90,Pichia kudriavzevii [11],2 µg/mL
same,MIC,Pichia kudriavzevii [12],4 µg/mL
same,Time,Pichia kudriavzevii [13],19.5 h
same,Time,Pichia kudriavzevii [14],12.5 h
same,MIC,Pichia kudriavzevii [15],1 µg/mL
same,Time,Pichia kudriavzevii [16],37.4 h
same,MFC,Pichia kudriavzevii [17],> 64 µg/mL
same,Activity,Pichia kudriavzevii [18],inactive
same,MFC,Pichia kudriavzevii [19],8 µg/mL
same,MIC,Pichia kudriavzevii [20],1 µg/mL
same,MFC,Pichia kudriavzevii [21],1 µg/mL
same,MFC,Pichia kudriavzevii [22],2 µg/mL
same,Activity,Pichia kudriavzevii [23],inactive
same,MFC,Pichia kudriavzevii [24],2 µg/mL
same,Time,Pichia kudriavzevii [25],7.1 h
same,Time,Pichia kudriavzevii [26],29.2 h
same,MFC,Pichia kudriavzevii [27],2 µg/mL
same,Time,Pichia kudriavzevii [28],>48 h
same,Time,Pichia kudriavzevii [29],2.9 h
same,Time,Pichia kudriavzevii [30],21.4 h
same,MFC,Pichia kudriavzevii [31],1 µg/mL
same,MFC,Pichia kudriavzevii [32],2 µg/mL
same,MIC,Pichia kudriavzevii [33],2 µg/mL
same,MIC,Pichia kudriavzevii [34],1 µg/mL
same,MIC50,Pichia kudriavzevii [35],1 µg/mL
same,MIC90,Pichia kudriavzevii [35],2 µg/mL
same,Activity,Pichia kudriavzevii [36],inactive
same,Activity,Pichia kudriavzevii [37],inactive
same,MIC50,Pichia kudriavzevii [38],1 µg/mL
same,MIC90,Pichia kudriavzevii [38],2 µg/mL
same,MFC50,Pichia kudriavzevii [39],2 µg/mL
same,MFC90,Pichia kudriavzevii [39],8 µg/mL
same,MFC,"Pichia kudriavzevii [39]; Pichia kudriavzevii, ATCC 6258, 48 h",1 µg/mL
same,Time,Pichia kudriavzevii [40],8.3 h
same,Time,Pichia kudriavzevii [41],9.7 h
